Molecular target: CK1 D132A
Experiment: Radioactive (32P-ATP) timecourse kinase assay, CK1 D132A mutant
Type: biochemical, human
Details: 200 μM peptide, 20 nM CK1 (primed) or 200 nM CK1 (unprimed), 750 μM ATP, 30 °C (Figure S15B-C)
Experimental: PER FASP region peptides were synthesized and purified to 95% or higher (SABio). Two independent reaction mixtures of 50 μL containing 200 μM of the FASP or in reaction buffer (25 mM Tris pH 7.5, 7.5 mM MgCl2, 1 mM DTT, 0.1 mg/mL BSA) were preincubated for 5 minutes with or without 20 nM CK1 (for primed FASP) or 200 nM CK1 (for unprimed FASP) and the reaction was started by addition of 750 μM of UltraPure ATP (Promega) containing 1–2 μCi of X-^32p ATP (Perkin Elmer). After incubation of the reaction mix at 30 °C, an 8 μL aliquot of the reaction mix was transferred to P81 phosphocellulose paper (Reaction Biology Corp) at the indicated timepoints. The P81 paper was washed three times with 75 mM of orthophosphoric acid and once with acetone. The air-dried P81 paper was counted for Pi incorporation using a scintillation counter (Perkin Elmer) by Cherenkov counting. Results shown are from four independent assays.

Substance | kinase activity, CK1 D132A compared with CK1 WT
RKKKTEVSAHLSSLTLPGKAESVVSLTSQ [unprimed FASP peptide, synthetic mouse PER2 FASP region peptide, unprimed CK1 substrate] | dramatic loss in activity
RKKKTEVSAHLSSLTLPGKAEpSVVSLTSQ [primed FASP peptide, synthetic mouse PER2 FASP peptide phosphorylated at the priming serine] | more modest effect
